Results reported in article PMC7181703, “Using proteolysis-targeting chimera technology to reduce navitoclax platelet toxicity and improve its senolytic activity” (Nature Communications, 2020).
Like-named read-outs stand apart in the source and are kept apart here.

What was measured:
[1] = target: T1, Bcl-w (Homo sapiens, UniProt Q92843); test: biochemical; parameters: AlphaLISA competitive displacement of biotin-tagged BAD or BIM peptide from His-tagged Bcl-2 family protein
T1 construct: gene BCL2L2; Purified recombinant His-tagged Bcl-w
T1 sequence (Q92843 2-193): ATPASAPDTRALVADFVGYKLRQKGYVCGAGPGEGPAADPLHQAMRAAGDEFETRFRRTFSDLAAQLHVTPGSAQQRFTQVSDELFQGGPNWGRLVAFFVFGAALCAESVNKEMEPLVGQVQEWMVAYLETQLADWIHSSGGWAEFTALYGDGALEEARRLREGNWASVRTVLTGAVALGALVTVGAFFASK
Description: Purified recombinant His-tagged Bcl-xl, His-tagged Bcl-2 and His-tagged Bcl-w (Cat. No. SRP0187 for Bcl-xl, Cat. No. SRP0186 for Bcl-2 and Cat. No. B1059 for Bcl-w, Sigma-Aldrich) were incubated with increasing concentrations of compounds and a fixed concentration of biotin-tagged BAD (Cat No. SQ-ASPE-66592-1, AnaSpec, Fremont, CA) (for Bcl-xl) or BIM (Cat. No. SQ-ASPE-66592-2, AnaSpec) (for Bcl-2 and Bcl-w) peptides to a final volume of 40 µL in 96-well PCR plates. After 24 h incubation, 5 µL 6X His-Acceptor beads (final concentration 20 µg/mL) (Cat. No. AL128M, Perkin-Elmer, Waltham, MA, USA) were added to each well and incubated for 1 h. Thereafter, 5 µL streptavidin-donor beads were added (final concentration of 20 µg/mL) (Cat. No. 6760002, Perkin-Elmer) to each well and incubated for 30 min. At the end of the incubation period, 17 µL of each sample was transferred into adjacent wells of 384-well proxy plate (Cat. No. 6008280, Perkin-Elmer). The plate was scanned using Alpha program on a Biotek’s Synergy Neo2 multi-mode plate reader (Winooski, VT, USA). Gen5 version 3.04 software (BioTek, USA) was used for the AlphaLISA signal measurements. The inhibition constant (Ki) was calculated using non-linear regression, one site, competitive binding, fit Ki function on GraphPad Prism 7 software based on experimentally determined Kd for each protein/peptide pair.

[2] = target: cereblon (CRBN) (Homo sapiens, UniProt Q96SW2); test: CRBN-dependent Bcl-xl degradation in WI38 cells: CRBN knockout, pomalidomide competition, N-methyl negative control; type: cell-based
[3] = target: T2, Bcl-2 (Homo sapiens, UniProt P10415); parameters: AlphaLISA competitive displacement of biotin-tagged BAD or BIM peptide from His-tagged Bcl-2 family protein; details: inhibitor
T2 construct: gene BCL2; Purified recombinant His-tagged Bcl-2

[4] = target: T3, Bcl-xl (Homo sapiens, UniProt Q07817); test: AlphaLISA/AlphaScreen competitive binding with biotin-tagged BAD peptide
T3 construct: gene BCL2L1; Purified recombinant His-tagged Bcl-xl

Ki [1] | Ki ([1]; inhibitor) | Ki [3] | Ki [4] | Compound | CRBN-dependent Bcl-xl degradation in WI38 cells: CRBN knockout, pomalidomide com [2]
8.5 nM |  |  |  | CC1(C)CCC(c2ccc(Cl)cc2)=C(CN2CCN(c3ccc(C(=O)NS(=O)(=O)c4ccc(N[C@H](CCN5CCOCC5)CSc5ccccc5)c(S(=O)(=O)C(F)(F)F)c4)cc3)CC2)C1 [ABT263] | 
 | > 1000 nM | 3.52 nM | 1.9 nM | CC1(C)CCC(c2ccc(Cl)cc2)=C(CN2CCN(c3ccc(C(=O)NS(=O)(=O)c4ccc(N[C@H](CCN5CCN(C(=O)CCCn6cc(COCCOCCNc7cccc8c7C(=O)N(C7CCC(=O)NC7=O)C8=O)nn6)CC5)CSc5ccccc5)c(S(=O)(=O)C(F)(F)F)c4)cc3)CC2)C1 (some centres unmarked) [PZ, PZ15227] | PZ had no effect on the levels of Bcl-xl in CRBN knockout cells (Fig. 2e)
